Laboratory results taken from US5789434A, “Derivatives of substituted 4-biarylbutyric acid as matrix metalloprotease inhibitors” (priority 1995, dated 1998).
Counter-ions that a name gives are not always drawn.

Legend:
MMP-9 = target: T1, MMP-9 (Homo sapiens, UniProt P14780); test: Thiopeptilide MMP-9 Inhibition Assay; type: biochemical; conditions: for IC50: pH 6.5, x (n) = average of n determinations, read-out: MMP-9: Thiopep. IC50; for inhibition at 5 µM: read-out: MMP-9: Thiopep. % inhibition
T1 construct: from tissue; host or cells: human polymorphonuclear leukocytes (PMN) from whole blood (New York Blood Center), PMA-stimulated supernatant
T1 sequence (P14780 107-707 limits assumed): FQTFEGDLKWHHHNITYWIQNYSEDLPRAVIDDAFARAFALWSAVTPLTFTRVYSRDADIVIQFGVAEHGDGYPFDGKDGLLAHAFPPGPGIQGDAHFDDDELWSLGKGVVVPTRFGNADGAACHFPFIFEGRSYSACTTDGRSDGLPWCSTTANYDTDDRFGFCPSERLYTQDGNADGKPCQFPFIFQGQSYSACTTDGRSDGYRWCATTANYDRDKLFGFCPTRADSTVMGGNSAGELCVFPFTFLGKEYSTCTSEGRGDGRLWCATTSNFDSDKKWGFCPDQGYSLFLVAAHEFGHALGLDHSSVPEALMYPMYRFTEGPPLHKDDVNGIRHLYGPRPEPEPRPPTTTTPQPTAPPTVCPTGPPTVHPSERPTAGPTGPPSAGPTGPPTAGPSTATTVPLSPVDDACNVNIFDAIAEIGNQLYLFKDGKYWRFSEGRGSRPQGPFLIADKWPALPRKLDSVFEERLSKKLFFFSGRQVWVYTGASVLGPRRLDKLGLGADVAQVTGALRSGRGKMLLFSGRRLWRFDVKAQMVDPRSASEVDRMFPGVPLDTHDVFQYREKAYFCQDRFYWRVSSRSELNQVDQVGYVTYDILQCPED

MMP-3 = target: T2, MMP-3 (Homo sapiens, UniProt P08254); test: Primary Thiopeptilide MMP-3 Inhibition Assay; type: biochemical; conditions: for IC50: pH 6.5, 13 nM stromelysin, x (n) = average of n determinations, read-out: MMP-3 Thiopep. IC50; for inhibition at 5 µM: read-out: MMP-3 Thiopep. % inhibition
T2 construct: Truncated Prostromelysin-257 was expressed in a soluble form in E.coli; made in house; host or cells: E. coli
T2 sequence (P08254 100-274 limits assumed): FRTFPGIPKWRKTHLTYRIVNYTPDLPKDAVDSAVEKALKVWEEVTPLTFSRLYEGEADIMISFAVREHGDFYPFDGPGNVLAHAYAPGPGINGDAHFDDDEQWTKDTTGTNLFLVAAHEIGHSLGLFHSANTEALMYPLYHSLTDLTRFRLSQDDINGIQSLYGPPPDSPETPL

IC50 (MMP-9)	IC50 (MMP-3)	inhibition at 5 µM (MMP-9)	inhibition at 5 µM (MMP-3)	Structure (SMILES)
7000 nM	2400 nM	–	–	C[C@@H](C(=O)O)[C@@H](C)C(=O)c1ccc(-c2ccc(Cl)cc2)cc1 (relative stereo) [Example 283, [1,1'-Biphenyl]-4-butanoic acid, 4'-chloro-α,β-dimethyl-γ-oxo-, (R*,R*)-]
–	–	1%	10%	C[C@H](C(=O)c1ccc(-c2ccc(Cl)cc2)cc1)[C@@H](C)C(=O)O (relative stereo) [Example 284, [1,1'-Biphenyl]-4-butanoic acid, 4'-chloro-α,β-dimethyl-γ-oxo-, (R*,S*)-]
–	2500 nM	21%	–	O=C(O)[C@@H]1CCCC[C@H]1C(=O)c1ccc(-c2ccc(Cl)cc2)cc1 (relative stereo) [Example 285, Cyclohexanecarboxylic acid, 2-[(4'-chloro[1,1'-biphenyl]-4-yl)carbonyl]-, trans-]
–	–	0%	19%	O=C(c1ccc(-c2ccc(Cl)cc2)cc1)[C@H]1CCCC[C@H]1C(=O)O (relative stereo) [Example 286, Cyclohexanecarboxylic acid, 2-[(4'-chloro[1,1'-biphenyl]-4-yl)carbonyl]-, trans-]
–	–	46%	40%	O=C(c1ccc(-c2ccc(Cl)cc2)cc1)[C@H]1CCC[C@H]1C(=O)O (relative stereo) [Example 288, Cyclopentanecarboxylic acid, 2-[(4'-chloro[1,1'-biphenyl]-4-yl)carbonyl]-, cis-]
910 nM	348 nM	–	–	O=C(O)[C@@H]1CCC[C@H]1C(=O)c1ccc(-c2ccc(Cl)cc2)cc1 (relative stereo) [Example 289, Cyclopentanecarboxylic acid, 2-[(4'-chloro[1,1'-biphenyl]-4-yl)carbonyl]-, trans-]
–	–	15%	35%	O=C(c1ccc(-c2ccc(Cl)cc2)cc1)[C@H]1CC[C@H]1C(=O)O (relative stereo) [Example 290, Cyclobutanecarboxylic acid, 2-[(4'-chloro[1,1'-biphenyl]-4-yl)carbonyl]-, cis-]
–	–	12%	21%	O=C(c1ccc(-c2ccc(Cl)cc2)cc1)[C@H]1C[C@H]1C(=O)O (relative stereo) [Example 292, Cyclopropanecarboxylic acid, 2-[(4'-chloro[1,1'-biphenyl]-4-yl)carbonyl]-, cis-, reference compound]
–	–	0%	16%	O=C(O)[C@@H]1C[C@H]1C(=O)c1ccc(-c2ccc(Cl)cc2)cc1 (relative stereo) [Example 293, Cyclopropanecarboxylic acid, 2-[(4'-chloro[1,1'-biphenyl]-4-yl)carbonyl]-, trans-, reference compound]
1400 nM	310 nM	–	–	O=C(O)[C@H]1[C@@H](Sc2ccc(F)cc2)CC[C@@H]1C(=O)c1ccc(-c2ccc(Cl)cc2)cc1 (relative stereo) [Example 303, Cyclopentanecarboxylic acid, 2-[(4'-chloro[1,1'-biphenyl]-4-yl)carbonyl]-5-[(4-fluorophenyl)thio]-, (1α,2β,5α)-]
42 nM	55 nM	–	–	Cc1ccccc1S[C@@H]1CC[C@H](C(=O)c2ccc(-c3ccc(Cl)cc3)cc2)[C@H]1C(=O)O (relative stereo) [Example 304, Cyclopentanecarboxylic acid, 2-[(4'-chloro[1,1'-biphenyl]-4-yl)carbonyl]-5-[(2-methylphenyl)thio]-, (1α,2β,5α)-]
1800 nM	470 nM	–	–	Cc1ccccc1S[C@H]1CC[C@@H](C(=O)c2ccc(-c3ccc(Cl)cc3)cc2)[C@H]1C(=O)O (relative stereo) [Example 305, Cyclopentanecarboxylic acid, 2-[(4'-chloro[1,1'-biphenyl]-4-yl)carbonyl]-5-[(2-methylphenyl)thio]-, (1α,2α,5α)-]
550 nM	150 nM	–	–	Cc1ccccc1S[C@H]1CC[C@H](C(=O)c2ccc(-c3ccc(Cl)cc3)cc2)[C@H]1C(=O)O (relative stereo) [Example 306, Cyclopentanecarboxylic acid, 2-[(4'-chloro[1,1'-biphenyl]-4-yl)carbonyl]-5-[(2-methylphenyl)thio]-, (1α,2β,5α)-]
62 nM	73 nM	–	–	O=C(O)[C@@H]1[C@@H](C(=O)c2ccc(-c3ccc(Cl)cc3)cc2)CC[C@H]1Sc1ccc(F)cc1 (relative stereo) [Example 309, Cyclopentanecarboxylic acid, 2-[(4'-chloro[1,1'-biphenyl]-4-yl)carbonyl]-5-[(4-fluorophenyl)thio]-, (1α,2β-5β)-]
12000 nM	–	–	55%	CC1=C(C)C[C@@H](C(=O)c2ccc(-c3ccc(Cl)cc3)cc2)[C@H](C(=O)O)C1 (relative stereo) [Example 327, 3-Cyclohexene-1-carboxylic acid, 6-[(4'-chloro[1,1'-biphenyl]-4-yl)carbonyl]-3,4-dimethyl-, trans-]
–	–	45%	49%	O=C(O)[C@@H]1CC=CC[C@H]1C(=O)c1ccc(-c2ccc(Cl)cc2)cc1 (relative stereo) [Example 328, 3-Cyclohexene-1-carboxylic acid, 6-[(4'-chloro[1,1'-biphenyl]-4-yl)carbonyl]-, trans-]

IC50 (MMP-9)	IC50 (MMP-3)	inhibition at 5 µM (MMP-9)	inhibition at 5 µM (MMP-3)	Structure (SMILES)
8000 nM	–	–	58%	CC1=CC[C@@H](C(=O)c2ccc(-c3ccc(Cl)cc3)cc2)[C@H](C(=O)O)C1 (relative stereo) [Example 329, 3-Cyclohexene-1-carboxylic acid, 6-[(4'-chloro[1,1'-biphenyl]-4-yl)carbonyl]-3-methyl-, trans-]
–	–	–	0%	CC(C)CC1CC(c2ccc(-c3ccc(Cl)cc3)cc2)OC1=O (stereo not shown) [Example 35, 2(3H)-Furanone, 5-(4'-chloro[1,1'-biphenyl]-4-yl)dihydro-3-(2-methylpropyl)-, reference compound]
–	403 nM	–	–	CCCCCCCC(CC(=O)c1ccc(-c2ccc(Cl)cc2)cc1)C(=O)O (stereo not drawn) [Example 122, [1,1'-Biphenyl]-4-butanoic acid, 4'-chloro-α-hepty-γ-oxo-]
–	–	–	43%	CCCCCCCCCCC(CC(=O)c1ccc(-c2ccc(Cl)cc2)cc1)C(=O)O (stereo not drawn) [Example 123, [1,1'-Biphenyl]-4-butanoic acid, 4'-chloro-α-decyl-γ-oxo-]
–	600 nM	–	–	O=C(CC(CCc1ccccc1I)C(=O)O)c1ccc(-c2ccc(Cl)cc2)cc1 (stereo not drawn) [Example 126, [1,1'-Biphenyl]-4-butanoic acid, 4'-chloro-α-[2-(2-iodophenyl)ethyl]-γ-oxo-]
–	310 nM	–	–	COC(=O)c1ccccc1CCC(CC(=O)c1ccc(-c2ccc(Cl)cc2)cc1)C(=O)O (stereo not drawn) [Example 142, [1,1'-Biphenyl]-4-butanoic acid, 4'-chloro-α-[2-[2-(methoxycarbonyl)phenyl]ethyl]-γ-oxo-]
–	–	21%	–	O=C(C[C@@H](CSc1ccccc1)C(=O)O)c1ccc(-c2ccc(Cl)cc2)cc1 [Example 198, 4-[4-(4-chlorophenyl)phenyl]-4-oxo-2R-(phenylthiomethyl)butanoic acid]
–	2000 nM	–	–	O=C(CC(CSc1cccc(C(F)(F)F)c1)C(=O)O)c1ccc(-c2ccc(Cl)cc2)cc1 (stereo not drawn) [Example 236, [1,1'-Biphenyl]-4-butanoic acid, 4'-chloro-γ-oxo-α-[[[3-(trifluoromethyl)phenyl]thio]methyl]-]
–	2000 nM	–	–	COC(=O)c1ccc(SCC(CC(=O)c2ccc(-c3ccc(Cl)cc3)cc2)C(=O)O)cc1 (stereo not drawn) [Example 237, [1,1'-Biphenyl]-4-butanoic acid, 4'-chloro-α-[[[4-(methoxycabonyl)phenyl]thio]methyl]-γ-oxo-]
–	920 nM	–	–	O=C(O)Cc1ccc(SCC(CC(=O)c2ccc(-c3ccc(Cl)cc3)cc2)C(=O)O)cc1 (stereo not drawn) [Example 238, [1,1'-Biphenyl]-4-butanoic acid, α-[[[4-(carboxymethyl)phenyl]thio]methyl]-4'-chloro-γ-oxo-]
–	–	–	55%	CC(CC(=O)c1ccc(-c2ccc(Cl)cc2)cc1)(Sc1ccccc1)C(=O)O (stereo not drawn) [Example 245, [1,1'-Biphenyl]-4-butanoic acid, 4'-chloro-α-methyl-γ-oxo-α-(phenylthio)-]
–	–	–	14%	O=C(C[C@@H](C[S+]([O-])c1ccccc1)C(=O)O)c1ccc(-c2ccc(Cl)cc2)cc1 (stereo partly drawn) [Example 246, [1,1'-Biphenyl]-4-butanoic acid, 4'-chloro-γ-oxo-α-[(phenylsulfinyl)methyl]-, stereoisomer]
–	830 nM	–	–	O=C(C[C@H](C[S+]([O-])c1ccccc1)C(=O)O)c1ccc(-c2ccc(Cl)cc2)cc1 (stereo partly drawn) [Example 248, [1,1'-Biphenyl]-4-butanoic acid, 4'-chloro-γ-oxo-α-[(phenylsulfinyl)methyl]-, stereoisomer]
–	1600 nM	–	–	O=C(C[C@H](C[S+]([O-])c1ccccc1)C(=O)O)c1ccc(-c2ccc(Cl)cc2)cc1 (stereo partly drawn) [Example 249, [1,1'-Biphenyl]-4-butanoic acid, 4'-chloro-γ-oxo-α-[(phenylsulfinyl)methyl]-, stereoisomer]
–	–	–	48%	CCN(CC)CCC(CC(=O)c1ccc(-c2ccc(Cl)cc2)cc1)C(=O)O (stereo not drawn) [Example 264, [1,1'-Biphenyl]-4-butanoic acid, 4'-chloro-α-[2-(diethylamino)ethyl]-γ-oxo-, hydrochloride]

Structure (SMILES)	IC50 (MMP-9)	IC50 (MMP-3)	inhibition at 5 µM (MMP-9)	inhibition at 5 µM (MMP-3)
O=C(O)[C@H]1[C@@H](Sc2ccccc2)CC[C@@H]1C(=O)c1ccc(-c2ccc(Cl)cc2)cc1 (relative stereo) [Example 295]	600 nM	99 nM	–	–
COC(=O)c1ccccc1S[C@H]1CC[C@H](C(=O)c2ccc(-c3ccc(Cl)cc3)cc2)[C@H]1C(=O)O (relative stereo) [Example 298, trans-5-[4-(4-chlorophenyl)phenylcarbonyl]-cis-2-(2-methoxycarbonylphenylthio)cyclopentanecarboxylic acid]	850 nM	50 nM	–	–
